US10934300B2, “Atropisomerism for enhanced kinase inhibitor selectivity” (San Diego State University Foundation, priority 2017, dated 2021)
Values joined by “and” are separate entries in the source; they are usually repeats but may differ in a detail not shown here. Equal entries are not always repeated. Where two headings read alike, the source gives them in different places.

Key:
Src kinase = Src kinase (Homo sapiens, UniProt P12931); experiment: Z'-LYTE kinase inhibition, Src; settings: for IC50: Table 4; for IC50 of compound Kinase/IC50 of compound Yes: Src relative to Yes
Sequence of Src kinase (P12931 whole entry): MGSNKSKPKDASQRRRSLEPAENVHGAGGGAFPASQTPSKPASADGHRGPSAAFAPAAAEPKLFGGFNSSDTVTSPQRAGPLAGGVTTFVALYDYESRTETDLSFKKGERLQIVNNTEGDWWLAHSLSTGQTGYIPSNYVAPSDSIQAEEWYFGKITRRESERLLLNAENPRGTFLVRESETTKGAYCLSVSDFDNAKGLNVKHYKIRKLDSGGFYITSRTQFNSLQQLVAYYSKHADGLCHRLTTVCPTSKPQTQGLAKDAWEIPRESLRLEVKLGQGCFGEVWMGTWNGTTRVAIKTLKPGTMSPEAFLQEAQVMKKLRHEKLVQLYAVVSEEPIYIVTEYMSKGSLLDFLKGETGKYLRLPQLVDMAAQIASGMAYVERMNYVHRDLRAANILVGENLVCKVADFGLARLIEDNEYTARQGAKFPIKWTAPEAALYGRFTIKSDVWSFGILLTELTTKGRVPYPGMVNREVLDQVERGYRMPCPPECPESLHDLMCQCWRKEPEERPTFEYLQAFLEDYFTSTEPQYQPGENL

Ret kinase = Ret kinase (Homo sapiens, UniProt P07949); experiment: Z'-LYTE kinase inhibition, Ret; settings: for IC50: Ret IC50 (nM), Table 4; for IC50 of compound Kinase/IC50 of compound Yes: Ret relative to Yes
Sequence of Ret kinase (P07949 29-1114): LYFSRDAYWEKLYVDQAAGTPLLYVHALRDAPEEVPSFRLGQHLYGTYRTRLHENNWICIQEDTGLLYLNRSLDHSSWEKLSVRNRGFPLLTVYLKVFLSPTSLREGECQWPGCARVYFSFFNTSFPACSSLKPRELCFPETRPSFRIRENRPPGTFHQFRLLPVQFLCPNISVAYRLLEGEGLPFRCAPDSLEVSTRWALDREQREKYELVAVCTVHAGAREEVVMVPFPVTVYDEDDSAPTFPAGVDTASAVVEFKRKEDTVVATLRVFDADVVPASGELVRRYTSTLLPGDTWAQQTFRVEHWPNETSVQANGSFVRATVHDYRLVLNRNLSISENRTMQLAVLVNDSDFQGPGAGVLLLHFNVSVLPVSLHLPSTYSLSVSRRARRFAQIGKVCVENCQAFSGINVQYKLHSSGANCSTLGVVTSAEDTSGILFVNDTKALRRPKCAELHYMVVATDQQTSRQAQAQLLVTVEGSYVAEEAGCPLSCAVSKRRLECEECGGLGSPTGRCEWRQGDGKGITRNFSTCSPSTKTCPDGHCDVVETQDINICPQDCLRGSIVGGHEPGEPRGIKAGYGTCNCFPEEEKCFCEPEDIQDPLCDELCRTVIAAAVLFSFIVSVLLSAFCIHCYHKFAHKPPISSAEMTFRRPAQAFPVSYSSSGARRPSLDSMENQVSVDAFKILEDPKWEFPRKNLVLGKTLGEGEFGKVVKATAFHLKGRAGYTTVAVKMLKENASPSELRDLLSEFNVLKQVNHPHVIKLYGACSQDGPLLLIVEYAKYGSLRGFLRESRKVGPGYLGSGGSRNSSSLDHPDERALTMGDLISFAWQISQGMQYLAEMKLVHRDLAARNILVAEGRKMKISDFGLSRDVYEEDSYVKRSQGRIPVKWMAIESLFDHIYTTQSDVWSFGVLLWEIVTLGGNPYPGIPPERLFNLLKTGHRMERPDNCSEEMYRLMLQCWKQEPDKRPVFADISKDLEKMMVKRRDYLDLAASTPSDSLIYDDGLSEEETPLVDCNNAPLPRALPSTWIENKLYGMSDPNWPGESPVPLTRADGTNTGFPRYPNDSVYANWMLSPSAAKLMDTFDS

Abl = Abl (Homo sapiens, UniProt P00519); experiment: Z'-LYTE kinase inhibition, Abl; settings: for IC50 of compound Kinase/IC50 of compound Yes: Abl relative to Yes
Sequence of Abl (P00519 whole entry): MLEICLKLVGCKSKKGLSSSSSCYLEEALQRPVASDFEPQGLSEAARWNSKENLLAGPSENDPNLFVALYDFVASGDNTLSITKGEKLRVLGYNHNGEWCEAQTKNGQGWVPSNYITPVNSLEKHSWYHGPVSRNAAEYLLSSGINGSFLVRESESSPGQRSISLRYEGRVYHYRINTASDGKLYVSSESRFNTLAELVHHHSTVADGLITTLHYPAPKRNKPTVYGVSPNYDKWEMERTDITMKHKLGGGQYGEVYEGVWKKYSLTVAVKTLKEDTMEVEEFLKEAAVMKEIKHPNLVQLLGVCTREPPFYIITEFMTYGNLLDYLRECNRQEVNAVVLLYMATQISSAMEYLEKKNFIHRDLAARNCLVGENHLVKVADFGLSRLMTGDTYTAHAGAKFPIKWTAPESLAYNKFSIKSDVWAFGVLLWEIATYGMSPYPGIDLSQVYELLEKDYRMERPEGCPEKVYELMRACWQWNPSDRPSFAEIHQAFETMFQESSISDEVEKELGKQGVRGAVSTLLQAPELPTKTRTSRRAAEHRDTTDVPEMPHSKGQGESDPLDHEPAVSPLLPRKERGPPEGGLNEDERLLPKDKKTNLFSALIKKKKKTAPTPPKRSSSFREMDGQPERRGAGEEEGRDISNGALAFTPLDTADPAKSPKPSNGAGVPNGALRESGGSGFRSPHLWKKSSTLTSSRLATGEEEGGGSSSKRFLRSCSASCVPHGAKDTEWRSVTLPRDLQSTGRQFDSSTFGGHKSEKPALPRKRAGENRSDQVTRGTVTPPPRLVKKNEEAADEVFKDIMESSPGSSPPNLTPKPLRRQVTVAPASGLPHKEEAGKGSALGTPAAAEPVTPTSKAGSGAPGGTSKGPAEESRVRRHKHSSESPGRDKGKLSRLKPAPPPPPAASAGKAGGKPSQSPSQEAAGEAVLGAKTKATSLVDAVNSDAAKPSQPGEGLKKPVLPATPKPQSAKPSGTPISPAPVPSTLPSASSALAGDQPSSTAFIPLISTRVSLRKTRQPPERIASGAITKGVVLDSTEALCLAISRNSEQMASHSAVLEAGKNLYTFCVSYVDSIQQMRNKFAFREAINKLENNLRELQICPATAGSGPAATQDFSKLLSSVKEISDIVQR

Yes = Yes (Homo sapiens, UniProt P07947); experiment: Z'-LYTE kinase inhibition, Yes; settings: for IC50 of compound Kinase/IC50 of compound Yes: Yes relative to Yes
Sequence of Yes (P07947 whole entry): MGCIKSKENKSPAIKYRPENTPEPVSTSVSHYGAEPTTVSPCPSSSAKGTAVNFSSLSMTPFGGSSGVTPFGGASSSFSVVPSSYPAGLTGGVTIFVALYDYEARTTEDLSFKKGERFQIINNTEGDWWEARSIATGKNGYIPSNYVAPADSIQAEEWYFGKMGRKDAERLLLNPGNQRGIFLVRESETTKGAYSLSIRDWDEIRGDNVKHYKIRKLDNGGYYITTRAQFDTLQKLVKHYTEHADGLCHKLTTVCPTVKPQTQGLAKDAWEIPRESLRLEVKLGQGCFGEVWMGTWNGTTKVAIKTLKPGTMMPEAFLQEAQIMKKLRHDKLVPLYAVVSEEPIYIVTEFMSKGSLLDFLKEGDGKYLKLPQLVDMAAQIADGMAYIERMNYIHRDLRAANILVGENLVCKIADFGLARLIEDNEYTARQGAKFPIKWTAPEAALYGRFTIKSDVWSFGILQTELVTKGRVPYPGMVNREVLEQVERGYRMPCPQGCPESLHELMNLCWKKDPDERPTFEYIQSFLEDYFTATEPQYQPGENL

EGFR = EGFR (Homo sapiens, UniProt P00533); experiment: Z'-LYTE kinase inhibition, EGFR; settings: EGFR relative to Yes
Sequence of EGFR (P00533 25-1210): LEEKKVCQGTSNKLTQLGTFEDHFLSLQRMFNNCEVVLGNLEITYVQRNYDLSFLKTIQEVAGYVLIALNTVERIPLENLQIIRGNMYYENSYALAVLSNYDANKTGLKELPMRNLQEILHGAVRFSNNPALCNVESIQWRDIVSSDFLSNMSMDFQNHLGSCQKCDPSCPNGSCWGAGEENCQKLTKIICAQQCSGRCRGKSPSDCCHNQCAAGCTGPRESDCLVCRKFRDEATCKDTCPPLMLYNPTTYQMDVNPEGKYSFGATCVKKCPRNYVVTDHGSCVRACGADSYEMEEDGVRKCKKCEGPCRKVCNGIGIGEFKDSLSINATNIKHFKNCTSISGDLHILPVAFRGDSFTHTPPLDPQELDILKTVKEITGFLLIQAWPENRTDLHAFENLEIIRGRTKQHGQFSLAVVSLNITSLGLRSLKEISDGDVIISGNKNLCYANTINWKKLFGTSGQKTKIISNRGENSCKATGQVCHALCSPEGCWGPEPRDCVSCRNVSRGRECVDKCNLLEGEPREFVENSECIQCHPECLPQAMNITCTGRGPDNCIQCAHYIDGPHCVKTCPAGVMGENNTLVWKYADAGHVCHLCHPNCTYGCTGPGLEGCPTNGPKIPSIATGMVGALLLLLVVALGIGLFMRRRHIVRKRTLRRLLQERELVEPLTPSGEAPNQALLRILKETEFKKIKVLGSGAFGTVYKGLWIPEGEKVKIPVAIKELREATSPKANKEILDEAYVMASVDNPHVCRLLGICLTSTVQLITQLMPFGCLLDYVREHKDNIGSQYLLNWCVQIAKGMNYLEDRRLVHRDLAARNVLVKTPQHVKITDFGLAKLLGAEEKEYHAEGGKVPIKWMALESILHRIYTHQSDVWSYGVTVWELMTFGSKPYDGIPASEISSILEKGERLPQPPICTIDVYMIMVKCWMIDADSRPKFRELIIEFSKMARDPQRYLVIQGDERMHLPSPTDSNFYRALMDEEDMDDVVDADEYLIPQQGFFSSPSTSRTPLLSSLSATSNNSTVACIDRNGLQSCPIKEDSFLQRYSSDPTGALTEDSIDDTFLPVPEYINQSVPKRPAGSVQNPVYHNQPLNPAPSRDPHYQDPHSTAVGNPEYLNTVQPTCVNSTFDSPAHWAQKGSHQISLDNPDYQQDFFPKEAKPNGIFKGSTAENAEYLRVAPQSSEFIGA

[1] = tested on: panel of tyrosine kinases; experiment: Kinase inhibitor profiling across a panel of tyrosine kinases, selectivity score; type: biochemical
Method: To analyze each analog's selectivity across the panel, selectivity scores were used (Davis et al., Nat. Biotechnol. 2011, 29, 1046-51), which are simply the number of kinases inhibited above a certain threshold divided by the number of kinases evaluated. […] For example at 1000 nM 2e-(R) yielded an S(40%) of 0.11 while 2e-(S) gave an S(40%) of 0.16. […] Differences in selectivity between 2e-(R) and 2e-(S) at 5000 nM (4.5 times the IC50 of 2e-(S) toward Src) and for 5 at 1000 nM (6.25 times the IC50 of 5 toward Src) can be viewed graphically across tyrosine kinases (FIG. 3). Importantly, similar trends were also observed across each of the atropisomeric series tested.
All samples were sent out to Life Technologies to obtain kinase inhibition data. A brief description of the assays and analyses are included below.
Assay Theory (SelectScreen® Kinase Profiling Services (Life Technologies, Madison, Wis. USA). The Z′-LYTE® biochemical assay employs a fluorescence-based, coupled-enzyme format and is based on the differential sensitivity of phosphorylated and non-phosphorylated peptides to proteolytic cleavage. The peptide substrate is labeled with two fluorophores—one at each end—that make up a FRET pair.
In the primary reaction, the kinase transfers the gamma-phosphate of ATP to a single tyrosine, serine or threonine residue in a synthetic FRET-peptide. In the secondary reaction, a site-specific protease recognizes and cleaves non-phosphorylated FRET-peptides. Phosphorylation of FRET-peptides suppresses cleavage by the Development Reagent. Cleavage disrupts FRET between the donor (i.e., coumarin) and acceptor (i.e., fluorescein) fluorophores on the FRET-peptide, whereas uncleaved, phosphorylated FRET-peptides maintain FRET. A ratiometric method, which calculates the ratio (the Emission Ratio) of donor emission to acceptor emission after excitation of the donor fluorophore at 400 nm, is used to quantitate reaction progress, as shown in the equation below: […]
A significant benefit of this ratiometric method for quantitating reaction progress is the elimination of well-to-well variations in FRET-peptide concentration and signal intensities. […] Both cleaved and uncleaved FRET-peptides contribute to the fluorescence signals and therefore to the Emission Ratio. The extent of phosphorylation of the FRET-peptide can be calculated from the Emission Ratio. The Emission Ratio will remain low 1f the FRET-peptide is phosphorylated (i.e., no kinase inhibition) and will be high if the FRET-peptide is non-phosphorylated (i.e., kinase inhibition).
Both cleaved and uncleaved FRET-peptides contribute to the fluorescence signals and therefore to the Emission Ratio. The extent of phosphorylation of the FRET-peptide can be calculated from the Emission Ratio. The Emission Ratio will remain low if the FRET-peptide is phosphorylated (i.e., no kinase inhibition) and will be high if the FRET-peptide is non-phosphorylated (i.e., kinase inhibition).

[2] = Experimental measurement of the barriers to rotation (racemization followed by chiral HPLC); type: physicochemical; settings: for kobs: observed rate constant of racemization in ethanol at the heating temperature (not given), in s^-1
Method: Enantiomerically enriched atropisomeric pyrrolopyrimidine analogues were isolated via chiral HPLC (Daicel Chiralpak IA PN:80335, 3 mL/min, 80:20 or 50:50 hexanes:ethanol, 25° C.) and evaporated in vacuo. The enantiomerically enriched analogues were then dissolved in ethanol and placed in a sealed 2-dram vial and heated under constant temperature on an aluminum block. At each time point, an aliquot of the mixture was removed and quenched in an HPLC vial containing ice cold 80:20 hexanes:ethanol. Each sample was then injected into the chiral HPLC system (Daicel Chiralpak IA PN:80325, 1 mL/min, 80:20 or 50:50 hexanes:ethanol, 25° C.) and enantiomeric excess (ee) measured. The timepoint and enantiomeric excess (ee) data was then plotted in order to determine an observed rate constant, kobs, at the corresponding temperature. The barrier to rotation was then calculated using the relationship of kracemization=2*kenantiomenzation and then substituted into the Gibbs Free Energy Equation:
[formula] where h=Planck Constant, kb=Boltzmann Constant, T=Temp. (K), R=Gas Constant.

Row | IC50 (Src kinase; Src IC50 (nM)) | IC50 (Ret kinase) | Structure (SMILES) | other results
1 | 4550 nM | 1580 nM | COc1ccc(C)c(-c2c(Cl)n(C(C)(C)C)c3ncnc(N)c23)c1 (atropisomer, axis not shown; (Ra)) [(Ra)-1] | 
2 |  | 1870 nM | COc1ccc(-c2c(Cl)n(C(C)(C)C)c3ncnc(N)c23)c(C)c1 (atropisomer, axis not shown; (Ra)) [(Ra)-2] | IC50 (Src kinase; read-out: Src IC50): > 10000 nM
3 | 3320 nM | 450 nM | COc1ccc(-c2c(C)n(C(C)(C)C)c3ncnc(N)c23)c(C)c1 (atropisomer, axis not shown; (Ra)) [(Ra)-7] | 
4 | 5570 nM | 282 nM | Cc1c(-c2cccc3ccccc23)c2c(N)ncnc2n1C(C)(C)C (atropisomer, axis not shown; (Ra)) [(Ra)-10] | 
5 | > 10000 nM | > 10000 nM | Cc1c(-c2cccc3c2CCCC3)c2c(N)ncnc2n1C(C)(C)C (atropisomer, axis not shown; (Ra)) [(Ra)-13] | 
6 | 4090 nM | 2240 nM | COc1ccc(C)c(-c2c(Cl)n(C(C)(C)C)c3ncnc(N)c23)c1 (atropisomer, axis not shown; (Sa)) [(Sa)-1] | 
7 | > 10000 nM | 3000 nM | COc1ccc(-c2c(Cl)n(C(C)(C)C)c3ncnc(N)c23)c(C)c1 (atropisomer, axis not shown; (Sa)) [(Sa)-2] | 
8 | 4750 nM | 918 nM | COc1ccc(-c2c(C)n(C(C)(C)C)c3ncnc(N)c23)c(C)c1 (atropisomer, axis not shown; (Sa)) [(Sa)-7] | 
9 | 4560 nM | 2860 nM | Cc1ccc(-c2c(C)n(C(C)C)c3ncnc(N)c23)c2ccccc12 (atropisomer, axis not shown; (Sa)) [(Sa)-11] | 
10 |  |  | COc1ccc(Cl)c(-c2c(Cl)n(C(C)(C)C)c3ncnc(N)c23)c1 (single isomer, unassigned) [2e-(R), 7-(tert-butyl)-6-chloro-5-(2-chloro-5-methoxyphenyl)-7H-pyrrolo[2,3-d]pyrimidin-4-amine] | IC50 of compound Kinase/IC50 of compound Yes (Src kinase): 6.22; IC50 (Abl): ≥ 10000 nM; IC50 of compound Kinase/IC50 of compound Yes (Abl): 10.0; IC50 of compound Kinase/IC50 of compound Yes (Yes): 1; IC50 of compound Kinase/IC50 of compound Yes (EGFR): >10.0; S(40%): number of kinases inhibited greater than 40% divided by number of kinases tested (including Src) ([1]; 1000 nM): 0.11; S(40%): number of kinases inhibited greater than 40% divided by number of kinases tested (including Src) ([1]; 5000 nM): 0.44; Inhibited % (n/18) of tyrosine kinases ([1]; share of the 18 tyrosine kinases inhibited, concentration not printed in Table 3): (R): Inhibited 11% (2/18); IC50 of compound Kinase/IC50 of compound Yes (Ret kinase): 2.07; augmentation/increase of 5's inherent selectivity (Ret kinase; Ret versus Abl and Src): 4 fold
11 | > 10000 nM | 7070 nM | COc1cc(-c2c(Cl)n(C(C)(C)C)c3ncnc(N)c23)c(Cl)cc1C (single isomer, unassigned) [(Ra)-3] | 
12 | 1330 nM | 699 nM | COc1ccc(Cl)c(-c2c(C)n(C(C)C)c3ncnc(N)c23)c1 (single isomer, unassigned) [(Ra)-4] | 
13 | 6370 nM | 731 nM | COc1ccc(C)c(-c2c(C)n(C(C)(C)C)c3ncnc(N)c23)c1 (single isomer, unassigned) [(Ra)-5] | 
14 |  | 1500 nM | COc1ccc(Cl)c(-c2c(Br)n(C(C)(C)C)c3ncnc(N)c23)c1 (single isomer, unassigned) [(Ra)-6] | 
15 | 5290 nM | 773 nM | COc1ccc(-c2c(CN)n(C(C)(C)C)c3ncnc(N)c23)c(C)c1 (single isomer, unassigned) [(Ra)-8] | 
16 | 1370 nM | 34 nM | Cc1c(-c2cccc3ccccc23)c2c(N)ncnc2n1C(C)C (single isomer, unassigned) [(Ra)-9] | 
17 | 7450 nM | 282 nM | Cc1c(-c2cncc3ccccc23)c2c(N)ncnc2n1C(C)(C)C (single isomer, unassigned) [(Ra)-12] | 
18 | 918 nM | 4810 nM | COc1cc(-c2c(Cl)n(C(C)(C)C)c3ncnc(N)c23)c(Cl)cc1C (single isomer, unassigned) [(Sa)-3] | 
19 | 406 nM | 2270 nM | COc1ccc(Cl)c(-c2c(C)n(C(C)C)c3ncnc(N)c23)c1 (single isomer, unassigned) [(Sa)-4] | 
20 | 4100 nM | 2500 nM | COc1ccc(C)c(-c2c(C)n(C(C)(C)C)c3ncnc(N)c23)c1 (single isomer, unassigned) [(Sa)-5] | 
21 |  | 8000 nM | COc1ccc(Cl)c(-c2c(Br)n(C(C)(C)C)c3ncnc(N)c23)c1 (single isomer, unassigned) [(Sa)-6] | 
22 | > 10000 nM | 9070 nM | COc1ccc(-c2c(CN)n(C(C)(C)C)c3ncnc(N)c23)c(C)c1 (single isomer, unassigned) [(Sa)-8] | 
23 | > 10000 nM | 8810 nM | Cc1c(-c2cccc3ccccc23)c2c(N)ncnc2n1C(C)C (single isomer, unassigned) [(Sa)-9] | 
24 | > 10000 nM | 9560 nM | Cc1c(-c2cccc3ccccc23)c2c(N)ncnc2n1C(C)(C)C (single isomer, unassigned) [(Sa)-10] | 
25 | 316 nM | 17 nM | Cc1c(-c2cncc3ccccc23)c2c(N)ncnc2n1C(C)(C)C (single isomer, unassigned) [(Sa)-12] | 
26 |  |  | COc1ccc(Cl)c(-c2c(Cl)n(C3CCCC3)c3ncnc(N)c23)c1 [Compound 1e, 6-chloro-5-(2-chloro-5-methoxyphenyl)-7-cyclopentyl-7H-pyrrolo[2,3-d]pyrimidin-4-amine] | Barrier to Rotation [2]: 27.2 kcal/mol; kobs [2]: 1.24E−04
27 |  |  | COc1ccc(Br)c(-c2c(Cl)n(C3CCCC3)c3ncnc(N)c23)c1 [Compound 1f, 5-(2-bromo-5-methoxyphenyl)-6-chloro-7-cyclopentyl-7H-pyrrolo[2,3-d]pyrimidin-4-amine] | Barrier to Rotation [2]: 29.0 kcal/mol; kobs [2]: 1.01E−05
28 |  |  | COc1ccc(Cl)c(-c2c(Cl)n(C(C)(C)C)c3ncnc(N)c23)c1 [Compound 2e, 7-(tert-butyl)-6-chloro-5-(2-chloro-5-methoxyphenyl)-7H-pyrrolo[2,3-d]pyrimidin-4-amine] | Barrier to Rotation [2]: 28.6 kcal/mol; kobs [2]: 3.27E−05
29 |  |  | COc1ccc(Br)c(-c2c(Cl)n(C(C)(C)C)c3ncnc(N)c23)c1 [Compound 2f, 5-(2-bromo-5-methoxyphenyl)-7-(tert-butyl)-6-chloro-7H-pyrrolo[2,3-d]pyrimidin-4-amine] | Barrier to Rotation [2]: 30.4 kcal/mol; kobs [2]: 2.68E−05
30 |  |  | COc1cccc(-c2cn(C(C)(C)C)c3ncnc(N)c23)c1 [Compound 5, reference compound] | IC50 of compound Kinase/IC50 of compound Yes (Src kinase): 1.64; IC50 of compound Kinase/IC50 of compound Yes (Abl): 2.65; relative selectivities favoring Yes (IC50 kinase/IC50 YES) over Ret, Src, and Abl (Yes): 1.4-2.65 fold; IC50 of compound Kinase/IC50 of compound Yes (Yes): 1; IC50 of compound Kinase/IC50 of compound Yes (EGFR): 7 and 6.96; S(40%): number of kinases inhibited greater than 40% divided by number of kinases tested (including Src) ([1]; 200 nM): 0.44; activity for the tyrosine kinase panel tested ([1]; 200 nM and 1000 nM): near pan activity; S(40%): number of kinases inhibited greater than 40% divided by number of kinases tested (including Src) ([1]; 1000 nM): 0.72; IC50 of compound Kinase/IC50 of compound Yes (Ret kinase): 1.4
